Data: US20260347372A1, “SMALL MOLECULE INHIBITORS OF KRAS G12D MUTANT” (MERCK SHARP & DOHME LLC, priority 2023, published 2026)
pIC50: −log10 of the molar value.

Assays:
KRAS G12D = KRAS G12D (Homo sapiens, UniProt P01116, G12D); assay: SOS-catalyzed nucleotide exchange assay, KRAS G12D (Procedure A); format: biochemical; conditions: guanine nucleotide exchange (GNE)
Method in brief: (§1)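 60 min cpd preinc. w/ RAS–Bodipy-GDP–Tb-SA complex; + hSOS/GTP (3 mM final), RT. G12C 3 nM RAS/40 nM SOS; WT, G12D 1 nM/40 nM; 60 min rxn. G13D 1.25 nM, no SOS, 30 min rxn. HEPES pH 7.5, 10 mM MgCl2. Ratio 520/495, norm. to DMSO/max-inhibitor ctrls.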

PANC08.13 cells = molecular target: T1, PANC08.13 cells (Homo sapiens, UniProt P01116, G12D); assay: Cellular phospho-ERK assay, PANC08.13 cells (KRAS G12D); format: cell-based; conditions: 2 hours, read-out: PANCO 813 pERK IC50
T1 construct: p-ERK/total ERK AlphaSureFire read-out
Method: Procedure for Cellular Phospho-ERK Assay in KRAS Wild Type and Mutant (G12D, G12V) Cell Lines
PANC08.13 cells (ATCC® CRL-2551™), containing homozygous KRAS-G12D activating mutation, were cultured in growth medium made of RPMI1640-GlutaMAX™-I (ThermoFisher Scientific 61870) containing 15% heat inactivated fetal bovine serum (ThermoFisher Scientific 10091148)). AsPC-1 cells (ATCC® CRL-1682™), containing homozygous KRAS-G12D activating mutation, were cultured in T150 flask in growth medium (RPMI medium 1640-GlutaMAX™-I (ThermoFisher Scientific 61870) containing 10% fetal bovine serum (ThermoFisher Scientific 10091148)).
Cells for the assay were harvested in growth medium after TrypLE (ThermoFisher scientific 12604021) digestion and were seeded in a 384-well collagen coated cell culture plate (Corning 356702) at a density of 10,000-15,000 cells/20 μL/well, and incubated at 37° C., 5% CO2 overnight. The compound (with 10 mM stock concentration) dose-response titrations were prepared [30 μM final ERK detection assay concentration and 1:3 dilutions, 10-point dose response] and appropriate amounts (270 nL) of test compounds were dispensed in a 384-well intermediate plate using an Echo 550 liquid handler. 30 μL/well of RPMI medium 1640-GlutaMAX™-I was added to the intermediate plate and the contents of the intermediate plate (10 μL/well) were then transferred to the 384-well collagen coated cell culture plate, which was incubated at 37° C., 5% CO2 for 2 hours. After removal of medium from the collagen coated cell culture plate, cells were lysed in lysis buffer from Alpha SureFire® Ultra™ Multiplex p-ERK and total ERK assay kit (PerkinElmer MPSU-PTERK) containing Halt™ Protease and Phosphatase inhibitor cocktail (ThermoFisher Scientific 78446) at room temperature with constant shaking at 300 rpm for 30 minutes. The cell lysates were then transferred to an OptiPlate-384 plate (PerkinElmer 6005620), and the phosphorylation of ERK (p-ERK) and total ERK levels were detected by Alpha SureFire® Ultra™ Multiplex p-EEK kit and total ERK assay kit (PerkinElmer MPSU-PTERK) following the manufacturer's protocol. Assay plates were read on a EnVision Multimode Plate Reader (PerkinElmer), and the ratio of p-ERK vs. total ERK in each well was used as the final readout. Dose response curves were analyzed using a 4-parameter logistic model to calculate IC50 values using Spotfire software.

KRAS G12C = KRAS G12C (Homo sapiens, UniProt P01116, C118S/C51S/C80L/G12C); assay: SOS-catalyzed nucleotide exchange assay, KRAS G12C (Procedure A); format: biochemical; conditions: GNE
Method in brief: as §1

HRAS = HRAS (Homo sapiens, UniProt P01112); assay: SOS-catalyzed nucleotide exchange assay, HRAS (Procedure A); format: biochemical; conditions: GNE
Method in brief: as §1

KRAS WT = KRAS WT (Homo sapiens, UniProt P01116); assay: SOS-catalyzed nucleotide exchange assay, KRAS WT (Procedure A); format: biochemical; conditions: GNE
Method in brief: as §1

NRAS = NRAS (Homo sapiens, UniProt P01111); assay: SOS-catalyzed nucleotide exchange assay, NRAS (Procedure A); format: biochemical; conditions: GNE
Method in brief: as §1

KRAS G13D = KRAS G13D (Homo sapiens, UniProt P01116, G13D); assay: SOS-catalyzed nucleotide exchange assay, KRAS G13D (Procedure A); format: biochemical; conditions: GNE
Method in brief: as §1

KRAS G12V = KRAS G12V (Homo sapiens, UniProt P01116, G12V); assay: SOS-catalyzed nucleotide exchange assay, KRAS G12V (Procedure A); format: biochemical; conditions: GNE
Method in brief: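 Biotinylated KRAS G12V was loaded with Bodipy-GDP alongside Terbium-streptavidin to form a TR-FRET complex, which was preincubated with compounds for 60 minutes in 384-well plates. Human SOS protein and unlabeled GTP were then added for 90 minutes, giving final concentrations of 1.25 nM KRAS-G12V, 160 nM SOS and 3 mM GTP. The 520/495 nm emission ratio was read on an Envision.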

NRAS, sequence (P01111 with tags, fused parts or gaps): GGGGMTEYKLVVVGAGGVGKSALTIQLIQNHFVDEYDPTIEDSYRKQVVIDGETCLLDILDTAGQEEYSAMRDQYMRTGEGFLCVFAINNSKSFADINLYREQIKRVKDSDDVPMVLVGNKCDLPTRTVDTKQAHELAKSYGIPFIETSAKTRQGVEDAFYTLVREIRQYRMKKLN
KRAS G13D, sequence (P01116 with tags, fused parts or gaps isoform P01116-2 G13D): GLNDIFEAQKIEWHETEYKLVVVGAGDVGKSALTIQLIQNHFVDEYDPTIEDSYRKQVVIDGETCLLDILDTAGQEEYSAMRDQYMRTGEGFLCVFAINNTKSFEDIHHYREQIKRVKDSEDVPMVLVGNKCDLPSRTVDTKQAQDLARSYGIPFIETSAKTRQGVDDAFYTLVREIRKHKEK
KRAS G12V, sequence (P01116 with tags, fused parts or gaps isoform P01116-2 G12V): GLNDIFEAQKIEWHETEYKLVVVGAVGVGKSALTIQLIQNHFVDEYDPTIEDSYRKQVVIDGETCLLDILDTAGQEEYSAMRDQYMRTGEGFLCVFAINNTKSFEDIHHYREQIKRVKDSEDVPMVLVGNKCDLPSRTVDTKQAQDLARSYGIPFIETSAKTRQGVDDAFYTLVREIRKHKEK
T1 sequence (P01116 1-188 isoform P01116-2 G12D): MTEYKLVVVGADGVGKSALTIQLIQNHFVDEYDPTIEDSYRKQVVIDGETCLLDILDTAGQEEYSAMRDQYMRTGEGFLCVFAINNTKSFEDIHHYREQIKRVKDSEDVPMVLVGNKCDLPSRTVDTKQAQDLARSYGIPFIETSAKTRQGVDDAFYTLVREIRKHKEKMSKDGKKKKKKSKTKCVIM
KRAS G12C, sequence (P01116 with tags, fused parts or gaps isoform P01116-2 G12C/C51S/C80L/C118S): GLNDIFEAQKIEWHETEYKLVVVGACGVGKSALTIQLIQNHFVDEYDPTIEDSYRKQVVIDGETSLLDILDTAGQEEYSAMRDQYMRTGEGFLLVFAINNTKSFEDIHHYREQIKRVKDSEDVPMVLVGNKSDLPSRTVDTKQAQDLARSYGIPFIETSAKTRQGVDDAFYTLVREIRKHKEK
KRAS G12D, sequence (P01116 with tags, fused parts or gaps isoform P01116-2 G12D): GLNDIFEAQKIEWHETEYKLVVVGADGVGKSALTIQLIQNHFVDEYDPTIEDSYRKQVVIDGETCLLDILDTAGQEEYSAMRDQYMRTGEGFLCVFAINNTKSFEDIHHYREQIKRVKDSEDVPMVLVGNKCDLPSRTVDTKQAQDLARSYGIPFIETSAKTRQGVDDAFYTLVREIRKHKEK
KRAS WT, sequence (P01116 with tags, fused parts or gaps isoform P01116-2): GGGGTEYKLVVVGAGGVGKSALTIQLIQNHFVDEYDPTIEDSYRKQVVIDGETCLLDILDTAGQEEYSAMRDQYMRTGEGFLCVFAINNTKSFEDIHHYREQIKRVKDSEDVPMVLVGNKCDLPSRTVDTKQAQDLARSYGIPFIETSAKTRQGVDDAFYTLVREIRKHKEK
HRAS, sequence (P01112 with tags, fused parts or gaps): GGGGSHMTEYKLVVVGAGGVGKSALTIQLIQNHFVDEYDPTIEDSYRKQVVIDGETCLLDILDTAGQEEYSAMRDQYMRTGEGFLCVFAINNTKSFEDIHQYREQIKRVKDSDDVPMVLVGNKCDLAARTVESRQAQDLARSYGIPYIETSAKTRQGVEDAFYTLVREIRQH

SMILES	pIC50 (KRAS G12D)	pIC50 (PANC08.13 cells)	pIC50 (KRAS G12C)	pIC50 (HRAS)	pIC50 (KRAS WT)	pIC50 (NRAS)	pIC50 (KRAS G13D)	pIC50 (KRAS G12V)
Cn1c2nc(OC[C@]3(CO)CC3(F)F)nc(N3C[C@H]4CC[C@@H](C3)N4)c2c2ccnc(-c3c(F)cc(F)c4sc(N)c(C#N)c34)c21 [Ex-63, 4-(4-((1R,5S)-3,8-diazabicyclo[3.2.1]octan-3-yl)-2-(((R)-2,2-difluoro-1-(hydroxymethyl)cyclopro-pyl)methoxy)-9-methyl-9H-pyrido[4′,3′:4,5]pyrrolo[2,3-d]pyrimidin-8-yl)-2-amino-5,7-difluorobenzo[b]thiophene-3-carbonitrile]	7.13	< 5.00	< 4.96	< 4.96	< 4.95	< 4.96	< 4.96	< 4.95
Cc1cc2[nH]ncc2c(-c2nccc3c2sc2nc(OC[C@]4(CO)CC4(F)F)nc(N4C[C@H]5CC[C@@H](C4)N5)c23)c1C(F)(F)F [Ex-25, ((1R)-1-(((4-((1R,5S)-3,8-diazabicyclo[3.2.1]octan-3-yl)-8-(6-methyl-5-(trifluoromethyl)-1H-indazol-4-yl)pyrido[4′,3′:4,5]thieno[2,3-d]pyrimidin-2-yl)oxy)methyl)-2,2-difluorocyclopropyl)methanol]	5.99	5.54	< 4.96	< 4.96	< 4.95	< 4.96	< 4.96	< 4.95
Cc1cc(N)nc(-c2nccc3c4c(N5C[C@H]6CC[C@@H](C5)N6)nc(OC[C@@]56CCCN5C[C@H](F)C6)nc4n(C)c23)c1C(F)(F)F [Ex-6, 6-(4-((1R,5S)-3,8-diazabicyclo[3.2.1]octan-3-yl)-2-(((2R,7aS)-2-fluorotetrahydro-1H-pyrrolizin-7a(5H)-yl)methoxy)-9-methyl-9H-pyrido[4′,3′:4,5]pyrrolo[2,3-d]pyrimidin-8-yl)-4-methyl-5-(trifluoromethyl)pyridin-2-amine]	6.04	5.01	< 4.96	< 4.96	< 4.95	< 4.96	< 4.96	< 4.95
Cc1cc2[nH]ncc2c(-c2nccc3c4c(N5C[C@H]6CC[C@@H](C5)N6)nc(OC[C@]5(CO)CC5(F)F)nc4n(C)c23)c1C(F)(F)F [Ex-53, ((1R)-1-(((4-((1R,5S)-3,8-diazabicyclo[3.2.1]octan-3-yl)-9-methyl-8-(6-methyl-5-(trifluoromethyl)-1H-indazol-4-yl)-9H-pyrido[4′,3′:4,5]pyrrolo[2,3-d]pyrimidin-2-yl)oxy)methyl)-2,2-difluorocyclopro-pyl)methanol]	6.23	5.40	< 4.96	< 4.96	< 4.95	< 4.96	5.31	< 4.95
Cn1c2nc(OC[C@]3(CO)CC3(F)F)nc(N3C[C@H]4CC[C@@H](C3)N4)c2c2ccnc(-c3ccc(F)c4sc(N)c(C#N)c34)c21 [Ex-62, 4-(4-((1R,5S)-3,8-diazabicyclo[3.2.1]octan-3-yl)-2-(((R)-2,2-difluoro-1-(hydroxymethyl)cyclopro-pyl)methoxy)-9-methyl-9H-pyrido[4′,3′:4,5]pyrrolo[2,3-d]pyrimidin-8-yl)-2-amino-7-fluorobenzo[b]thiophene-3-carbonitrile]	6.19	< 5.00	5.07	< 4.96	< 4.95	< 4.96	5.81	< 4.95
Cc1cc2[nH]ncc2c(-c2nccc3c2oc2nc(OC[C@@]45CCCN4C[C@H](F)C5)nc(N4C[C@H]5CC[C@@H](C4)N5)c23)c1C(F)(F)F [Ex-78, 4-((1R,5S)-3,8-diazabicyclo[3.2.1]octan-3-yl)-2-(((2R,7aS)-2-fluorotetrahydro-1H-pyrrolizin-7a(5H)-yl)methoxy)-8-(6-methyl-5-(trifluoromethyl)-1H-indazol-4-yl)pyrido[4′,3′:4,5]furo[2,3-d]pyrimidine]	6.14	5.58	< 4.96	< 4.96	< 4.95	< 4.96	< 4.96	< 4.95
